From US9403808B2, “Pyrazine derivatives” (Hoffmann-La Roche Inc., priority 2011, dated 2016) come the findings set out here.

Assay [1] addresses human CB2 receptors (Homo sapiens (Human), UniProt P34972). The assay is described as follows: functional cAMP assay, CB2. Type of assay: cell-based. On the procedure: (§1) CHO cells expressing human CB1 or CB2 receptors are seeded 17-24 hours prior to the experiment 50.000 cells per well in a black 96 well plate with flat clear bottom (Corning Costar #3904) in DMEM (Invitrogen No. 31331), 1×HT supplement, with 10% fetal calf serum and incubated at 5% CO2 and 37° C. in a humidified incubator. The growth medium was exchanged with Krebs Ringer Bicarbonate buffer with 1 mM IBMX and incubated at 30° C. for 30 min. Compounds were added to a final assay volume of 100 μl and incubated for 30 min at 30° C. Using the cAMP-Nano-TRF detection kit the assay (Roche Diagnostics) was stopped by the addition of 50 μl lysis reagent (Tris, NaCl, 1.5% Triton X100, 2.5% NP40, 10% NaN3) and 50 μl detection solutions (20 μM mAb Alexa700-cAMP 1:1, and 48 μM Ruthenium-2-AHA-cAMP) and shaken for 2 h at room temperature. The time-resolved energy transfer is measured by a TRF reader (Evotec Technologies GmbH), equipped with a ND:YAG laser as excitation source. The plate is measured twice with the excitation at 355 nm and at the emission with a delay of 100 ns and a gate of 100 ns, total exposure time 10s at 730 (bandwidth 30 nm) or 645 nm (bandwidth 75 nm), respectively. The FRET signal is calculated as follows: FRET=T730-Alexa730-P(T645-B645) with P=Ru730-B730/Ru645-B645, where T730 is the test well measured at […], T645 is the test well measured at 645 nm, B730 and B645 are the buffer controls at 730 nm and 645 nm, respectively. cAMP content is determined from the function of a standard curve spanning from 10 μM to 0.13 nM cAMP.
(§2) EC50 values were determined using Activity Base analysis (ID Business Solution, Limited). The EC50 values for a wide range of cannabinoid agonists generated from this assay were in agreement with the values published in the scientific literature.

For assay [2], the target named is human CB1 receptors (Homo sapiens (Human), UniProt P21554). Description: functional cAMP assay, CB1. It is filed as cell-based. The method, then: as §1, §2
human CB1 receptors, sequence (P21554 whole entry): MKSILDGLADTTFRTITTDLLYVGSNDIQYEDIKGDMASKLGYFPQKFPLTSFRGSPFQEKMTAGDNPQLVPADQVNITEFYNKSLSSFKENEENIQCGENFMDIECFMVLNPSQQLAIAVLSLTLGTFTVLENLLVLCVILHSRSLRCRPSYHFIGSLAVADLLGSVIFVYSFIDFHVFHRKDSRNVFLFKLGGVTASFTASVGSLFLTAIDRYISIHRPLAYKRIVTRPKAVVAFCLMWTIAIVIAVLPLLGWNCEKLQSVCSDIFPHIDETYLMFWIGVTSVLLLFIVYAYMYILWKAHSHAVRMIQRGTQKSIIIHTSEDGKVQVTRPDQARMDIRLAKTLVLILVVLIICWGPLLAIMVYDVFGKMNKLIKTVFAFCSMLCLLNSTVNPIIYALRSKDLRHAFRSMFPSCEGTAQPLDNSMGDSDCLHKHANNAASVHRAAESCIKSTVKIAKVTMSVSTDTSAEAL
Setting [3] is: functional cAMP assay, CHO cells expressing human CB1, read-out: human CB1 EC50.
[4] abbreviates: functional cAMP assay, CHO cells expressing human CB2, read-out: human CB2 EC50.

Like-named read-outs stand apart in the source and are kept apart here.

human CB2 receptors, sequence (P34972 whole entry): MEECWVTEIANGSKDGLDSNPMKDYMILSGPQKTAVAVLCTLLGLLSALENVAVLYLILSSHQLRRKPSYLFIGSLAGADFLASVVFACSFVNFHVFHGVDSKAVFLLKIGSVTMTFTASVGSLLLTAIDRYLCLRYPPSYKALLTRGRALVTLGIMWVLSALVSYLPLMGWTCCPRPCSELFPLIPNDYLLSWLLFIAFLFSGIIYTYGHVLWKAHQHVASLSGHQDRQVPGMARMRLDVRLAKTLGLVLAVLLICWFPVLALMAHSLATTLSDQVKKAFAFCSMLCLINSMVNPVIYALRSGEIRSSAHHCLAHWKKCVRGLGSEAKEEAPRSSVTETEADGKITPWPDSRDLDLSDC

One may read the EC50 as the concentration at which the effect is half-maximal. `NC(=O)[C@H]1CCCC[C@H]1NC(=O)c1cnc(N2CC(F)(F)C2)c(OCC2CC2)n1` (single isomer, unassigned) [Example 81] registered an EC50 in assay [1] of 31.2 nM.
On to `Cc1nc([C@@H](NC(=O)c2cnc(C3CC3)c(OCC3CC3)n2)C2CC2)no1` (stereo in doubt) [Example 40, 5-Cyclopropyl-6-cyclopropylmethoxy-pyrazine-2-carboxylic acid [(SR)-cyclopropyl-(5-methyl-[1,2,4]oxadiazol-3-yl)-methyl]-amide], for which the results for the EC50 in assay [2] and in assay [1] were over 10000 nM and 30.8 nM, respectively.
For `Cc1nc([C@H](NC(=O)c2cnc(C3CC3)c(OCC3CC3)n2)C2CC2)no1` (stereo in doubt) [Example 41, 5-Cyclopropyl-6-cyclopropylmethoxy-pyrazine-2-carboxylic acid [(RS)-cyclopropyl-(5-methyl-[1,2,4]oxadiazol-3-yl)-methyl]-amide], the EC50 is over 10000 nM in assay [2] and 518 nM in assay [1].
As for `Cc1nc([C@@H](NC(=O)c2cnc(N3CC(F)(F)C3)c(OCC3CC3)n2)C2CC2)no1` (stereo in doubt) [Example 42, 6-Cyclopropylmethoxy-5-(3,3-difluoro-azetidin-1-yl)-pyrazine-2-carboxylic acid [(SR)-cyclopropyl-(5-methyl-[1,2,4]oxadiazol-3-yl)-methyl]-amide], the figures for the EC50 in assay [2] and in assay [1] were over 10000 nM and 28 nM, respectively.
On to `Cc1nc([C@H](NC(=O)c2cnc(N3CC(F)(F)C3)c(OCC3CC3)n2)C2CC2)no1` (stereo in doubt) [Example 43, 6-Cyclopropylmethoxy-5-(3,3-difluoro-azetidin-1-yl)-pyrazine-2-carboxylic acid [(RS)-cyclopropyl-(5-methyl-[1,2,4]oxadiazol-3-yl)-methyl]-amide], for which the EC50 in assay [2] is over 10000 nM; in assay [1] it was 40.9 nM.
For `Cc1nc(C(C)(C)NC(=O)c2cnc(C3CC3)c(-c3cccc(Cl)c3)n2)no1` [Example 1, 6-(3-Chloro-phenyl)-5-cyclopropyl-pyrazine-2-carboxylic acid [1-methyl-1-(5-methyl-[1,2,4]oxadiazol-3-yl)-ethyl]amide], the results for the EC50 in assay [2] (setting [3]) and in assay [1] (setting [4]) were 1150 nM and 88.1 nM, respectively.
The matching figures for `CC(C)(C#N)NC(=O)c1cnc(C2CC2)c(-c2cccc(Cl)c2)n1` [Example 2, 6-(3-Chloro-phenyl)-5-cyclopropyl-pyrazine-2-carboxylic acid (cyano-dimethyl-methyl)-amide]: over 10000 nM and 104 nM.
For the compound `Cc1nc(C2(NC(=O)c3cnc(C4CC4)c(-c4cccc(Cl)c4)n3)CCC2)no1` [Example 3, 6-(3-Chloro-phenyl)-5-cyclopropyl-pyrazine-2-carboxylic acid [1-(5-methyl-[1,2,4]oxadiazol-3-yl)-cyclobutyl]-amide], the EC50 in assay [2] (setting [3]) is over 10000 nM; in assay [1] (setting [4]), 156 nM.
The matching figures for `Cc1nc(C(C)(C)NC(=O)c2cnc(N3CC(F)(F)C3)c(-c3cccc(Cl)c3)n2)no1` [Example 4, 6-(3-Chloro-phenyl)-5-(3,3-difluoro-azetidin-1-yl)-pyrazine-2-carboxylic acid [1-methyl-1-(5-methyl-[1,2,4]oxadiazol-3-yl)-ethyl]-amide]: over 10000 nM and 108 nM.
Consider `Cc1nc(C(C)(C)NC(=O)c2cnc(N3CCC3)c(-c3cccc(Cl)c3)n2)no1` [Example 5, 5-Azetidin-1-yl-6-(3-chloro-phenyl)-pyrazine-2-carboxylic acid [1-methyl-1-(5-methyl-[1,2,4]oxadiazol-3-yl)-ethyl]-amide], for which the EC50 in assay [2] (setting [3]) was over 10000 nM; in assay [1] (setting [4]) it was 140 nM.
On to `NC(=O)[C@@H](NC(=O)c1cnc(C2CC2)c(OCC2CC2)n1)c1ccc(F)cc1` [Example 63, 5-Cyclopropyl-6-cyclopropylmethoxy-pyrazine-2-carboxylic acid [(S)-carbamoyl-(4-fluoro-phenyl)-methyl]-amide], for which, in assay [1] (setting [4]), the EC50 was found to be 96.6 nM.
On to `NC(=O)[C@@H](NC(=O)c1cnc(N2CC(F)(F)C2)c(OCC2CC2)n1)c1ccc(F)cc1` [Example 64, 6-Cyclopropylmethoxy-5-(3,3-difluoro-azetidin-1-yl)-pyrazine-2-carboxylic acid [(S)-carbamoyl-(4-fluoro-phenyl)-methyl]-amide], for which the EC50 in assay [1] (setting [4]) was 31.2 nM.
For the compound `Cc1nc([C@H](CC2CC2)NC(=O)c2cnc(C3CC3)c(OCC3CC3)n2)no1` [Example 65, 5-Cyclopropyl-6-cyclopropylmethoxy-pyrazine-2-carboxylic acid [(S)-2-cyclopropyl-1-(5-methyl-[1,2,4]oxadiazol-3-yl)-ethyl]-amide], the EC50 in assay [1] (setting [4]) was found to be 20.7 nM.
For the compound `COC(=O)[C@H](CC(C)C)NC(=O)c1cnc(N2CC(F)(F)C2)c(OCC2CC2)n1` [Example 66, (S)-2-{[6-Cyclopropylmethoxy-5-(3,3-difluoro-azetidin-1-yl)-pyrazine-2-carbonyl]-amino}-4-methyl-pentanoic acid methyl ester], the EC50 in assay [1] (setting [4]) amounted to 0.4 nM.
Consider `CC(C)C[C@H](NC(=O)c1cnc(N2CC(F)(F)C2)c(OCC2CC2)n1)C(=O)NCC(F)(F)F` [Example 67, 6-Cyclopropylmethoxy-5-(3,3-difluoro-azetidin-1-yl)-pyrazine-2-carboxylic acid [(S)-3-methyl-1-(2,2,2-trifluoro-ethylcarbamoyl)-butyl]-amide], for which the EC50 in assay [1] (setting [4]) turned out to be 57.6 nM.
Take `NC(=O)[C@@H](NC(=O)c1cnc(N2CC(F)(F)C2)c(OCC2CC2)n1)c1ccc(Cl)cc1` [Example 68, 6-Cyclopropylmethoxy-5-(3,3-difluoro-azetidin-1-yl)-pyrazine-2-carboxylic acid [(S)-carbamoyl-(4-chloro-phenyl)-methyl]-amide]: in assay [1] (setting [4]), the EC50 was determined as 116 nM.
As to `CC(C)(CCCO)NC(=O)c1cnc(C2CC2)c(OCC2CC2)n1` [Example 69, 5-Cyclopropyl-6-cyclopropylmethoxy-pyrazine-2-carboxylic acid (4-hydroxy-1,1-dimethyl-butyl)-amide], in assay [1] (setting [4]), the EC50 was determined as 47.4 nM.
Turning to `Cc1oc(-c2ccccc2)nc1CC(C)(C)NC(=O)c1cnc(C2CC2)c(OCC2CC2)n1` [Example 71, 5-Cyclopropyl-6-cyclopropylmethoxy-pyrazine-2-carboxylic acid [1,1-dimethyl-2-(5-methyl-2-phenyl-oxazol-4-yl)-ethyl]-amide], the EC50 in assay [1] (setting [4]) came out at 201 nM.
Same read-out and setting: then `CC(CC(C)(C)NC(=O)c1cnc(C2CC2)c(OCC2CC2)n1)c1ccncc1` (centres unmarked) [Example 72, 5-Cyclopropyl-6-cyclopropylmethoxy-pyrazine-2-carboxylic acid (1,1-dimethyl-3-pyridin-4-yl-butyl)-amide], with 92.6 nM.
Turning to `COC(=O)C1(NC(=O)c2cnc(N3CC(F)(F)C3)c(OCC3CC3)n2)CCC1` [Example 73, 1-{[6-Cyclopropylmethoxy-5-(3,3-difluoro-azetidin-1-yl)-pyrazine-2-carbonyl]-amino}-cyclobutanecarboxylic acid methyl ester], in assay [1] (setting [4]), the EC50 is 20.5 nM.
Regarding `CC(C)[C@H](CC(N)=O)NC(=O)c1cnc(C2CC2)c(OCC2CC2)n1` [Example 76, 5-Cyclopropyl-6-cyclopropylmethoxy-pyrazine-2-carboxylic acid ((S)-1-carbamoylmethyl-2-methyl-propyl)-amide], the EC50 in assay [1] (setting [4]) stood at 16.3 nM.
Still for that read-out and setting: as for `CC(C)[C@H](CC(N)=O)NC(=O)c1cnc(N2CC(F)(F)C2)c(OCC2CC2)n1` [Example 77, 6-Cyclopropylmethoxy-5-(3,3-difluoro-azetidin-1-yl)-pyrazine-2-carboxylic acid ((S)-1-carbamoylmethyl-2-methyl-propyl)-amide], the figure is 6.5 nM; as for `Cc1nc([C@](C)(CC2CC2)NC(=O)c2cnc(N3CC(F)(F)C3)c(OCC3CC3)n2)no1` [Example 78, (+)-6-Cyclopropylmethoxy-5-(3,3-difluoro-azetidin-1-yl)-pyrazine-2-carboxylic acid [2-cyclopropyl-1-methyl-1-(5-methyl-[1,2,4]oxadiazol-3-yl)-ethyl]-amide], 17.4 nM.
On the same count and under the same terms, then `Cc1nc([C@@](C)(CC2CC2)NC(=O)c2cnc(N3CC(F)(F)C3)c(OCC3CC3)n2)no1` [Example 79, (−)-6-Cyclopropylmethoxy-5-(3,3-difluoro-azetidin-1-yl)-pyrazine-2-carboxylic acid [2-cyclopropyl-1-methyl-1-(5-methyl-[1,2,4]oxadiazol-3-yl)-ethyl]-amide], with 4 nM.
Same read-out and setting: then `NC(=O)[C@@H]1CCCC[C@@H]1NC(=O)c1cnc(C2CC2)c(OCC2CC2)n1` [Example 82], with 257 nM; and `NC(=O)[C@H]1CCCC[C@H]1NC(=O)c1cnc(C2CC2)c(OCC2CC2)n1` [Example 83], with 44.4 nM.
